Common to all, as to assay: DTP human tumour cell line panel, 48 h
Experiment [1] relates to DU-145 prostate.
The subject of experiment [2] is IGROV1 ovarian.
For experiment [3], the system named is K-562 leukemia.
The test system of experiment [4] is M14 melanoma.
The test system of experiment [5] is MCF7 breast.
For experiment [6], the system named is MOLT-4 leukemia.
The subject of experiment [7] is OVCAR-4 ovarian.
The test system of experiment [8] is PC-3 prostate.
Experiment [9] has as its system SK-MEL-2 melanoma.
Experiment [10] has as its system U251 CNS.

The source of these data is PubChem BioAssay (NCI).

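Protocol summary: plate cells (96-well), add compound at 5 concentrations, incubate 48 h, interpolate endpoints linearly. Here, GI50 denotes the concentration required for 50% inhibition of growth. The concentration for full growth arrest is given as TGI.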

The TGI is the concentration giving total growth inhibition. As to `O=C1OC(C(O)C(O)C(O)CO)C(O)C1O` (stereo not given), the TGI in experiment [1], in experiment [2], in experiment [3], in experiment [4], in [5] and in experiment [6] was above 100 µM throughout. The TGI in experiment [7], in [8], in experiment [9] and in experiment [10] was above 100 µM each time.

On to `CC(C)(C)OC(=O)NCCNC(=O)CN(CC(=O)O)C1CCCCC1N(CC(=O)O)CC(=O)O` (stereo not given), for which the TGI in experiment [1], in [2], in experiment [3], in experiment [4], in [5] and in [6] was above 100 µM throughout. In addition, the TGI in [7], in experiment [8], in [9] and in experiment [10] was above 100 µM throughout.

One may read the GI50 as the concentration at which growth is held to half of that of the control. With `COC1CCC(n2c([C@@H]3CCCC(=O)N3c3ccc(F)c(F)c3)nc3cc(-c4c(C)noc4C)ccc32)CC1` (stereo not given in full), the GI50 in experiment [1] is 16.8 µM; in experiment [2], 4.61 µM; in [3], 2.8 µM; in [4], 1.87 µM; in experiment [5], 0.626 µM; in experiment [6] it was 16.9 µM. The GI50 is 0.782 µM in [7], 3.5 µM in experiment [8], 11.4 µM in [9] and 10.2 µM in [10]. Besides, the TGI in experiment [1] is 54.2 µM; in [2], 25.4 µM; in [3], above 100 µM; in experiment [4] it was 19.9 µM; in experiment [5], 15.1 µM; in experiment [6] it was 72.2 µM. Moreover, the TGI in experiment [7] stood at 26.5 µM; in experiment [8], 44.1 µM; in experiment [9], 35.5 µM; in experiment [10] it was 23.8 µM.

For `Cc1nn(C(=O)c2ccc(Cl)cc2)c2c1C(c1ccco1)SC(N)=N2` (stereo not given), the TGI in [1], in [2], in [3], in experiment [4], in experiment [5] and in experiment [6] was above 10 µM each time. Also, the concentration for total growth inhibition (TGI) in experiment [7], in experiment [8], in experiment [9] and in [10] was above 10 µM throughout.

As to `CC(C)C(/C=C/c1ccccc1)=N\NC(=S)NN`, the TGI in [1] is above 100 µM; in experiment [2], above 100 µM; in experiment [3], above 100 µM; in [4], above 100 µM; in [5], above 76.6 µM; in experiment [6], above 100 µM. For the same compound, the TGI in experiment [7], in [8], in [9] and in [10] was above 100 µM each time.

Take `Cc1ccc(Nc2nc(NS(=O)(=O)c3cc(C)c(Cl)cc3S)n[nH]2)cc1`: the TGI in experiment [1], in [2], in experiment [3], in experiment [4], in experiment [5] and in experiment [6] was above 100 µM throughout. Besides, the TGI in [7], in experiment [8], in experiment [9] and in [10] was above 100 µM each time.

With `Cc1ccnc2sc3ccccc3c(=O)c12`, the concentration for total growth inhibition (TGI) in experiment [1] is above 100 µM; in [2] it was above 100 µM; in [3], above 100 µM; in [4] it was above 100 µM; in experiment [5] it was above 100 µM; in experiment [6] it was 79.2 µM. Besides, the TGI in experiment [7], in experiment [8], in experiment [9] and in [10] was above 100 µM each time.

With `OCCNc1nc2c(N3CCCC3)nc(N3CCNCC3)nc2nc1NCc1ccccc1`, the TGI in [1] amounted to 24.2 µM; in [2] it was 25.5 µM; in experiment [3], 30.1 µM; in experiment [4], 29.4 µM; in experiment [5], 28.3 µM; in experiment [6], 33.3 µM. Also, the TGI in experiment [7] amounted to 32.2 µM; in experiment [8], 30.7 µM; in experiment [9], 28.7 µM; in experiment [10] it was 23.3 µM.

Take `CN1N(c2ccccc2)C(=O)C2=NC=C(C#N)C(=N)C21C` (stereo not given): the TGI in experiment [1], in experiment [2], in experiment [3], in experiment [4], in experiment [5] and in experiment [6] was above 100 µM in each case. Moreover, the TGI in experiment [7], in [8], in experiment [9] and in experiment [10] was above 100 µM throughout.

Turning to `CC(C)(C)c1cc(C2NC(=O)NC2=O)cc(C(C)(C)C)c1O` (stereo not given), the TGI in experiment [1] is above 100 µM; in [2], above 100 µM; in [3] it was above 100 µM; in experiment [4], above 100 µM; in [5], 83.3 µM; in experiment [6] it was above 100 µM. The TGI in experiment [7], in experiment [8], in experiment [9] and in [10] was above 100 µM each time.

With `C=C(COC(=O)C(C)C)[C@H]1Oc2ccc(C(C)=O)cc2[C@@H]1OC(=O)C(C)C`, the TGI in experiment [1], in experiment [2], in experiment [3], in [4], in experiment [5] and in [6] was above 100 µM throughout. Further, the TGI in [7], in experiment [8], in experiment [9] and in [10] was above 100 µM each time.

In the case of `O=C1/C(=C2\SCC(=O)N2c2ccccc2)SC(=S)N1c1ccccc1`, the TGI in experiment [1] is above 100 µM; in experiment [2], 52.7 µM; in experiment [3], above 100 µM; in experiment [4] it was above 100 µM; in experiment [5], above 100 µM; in experiment [6], 51.7 µM. The TGI in experiment [7] was 66.9 µM; in experiment [8], above 100 µM; in experiment [9] it was above 100 µM; in experiment [10], above 100 µM.

With `CC1CN=C(N(C)C(=O)Nc2ccc(Cl)c(Cl)c2)S1` (stereo not given), the TGI was above 100 µM in experiment [1]; above 100 µM in experiment [2]; above 100 µM in experiment [3]; 38 µM in experiment [4]; 59.7 µM in experiment [5]; above 100 µM in [6]. Besides, the TGI was above 100 µM in experiment [7], above 100 µM in experiment [8], 44.2 µM in experiment [9] and above 100 µM in [10].

As to `COc1cc(-c2coc3c(OC)c(OC4OC(COC5OC(C)C(O)C(O)C5O)C(O)C(O)C4O)c(OC)c(O)c3c2=O)cc(C)c1O` (stereo not given), the total growth inhibition concentration (TGI) is 52.7 µM in [1]; 53.1 µM in [2]; 34.6 µM in experiment [3]; 33.1 µM in experiment [4]; 47.4 µM in experiment [5]; 19.4 µM in [6]. The TGI is 69.5 µM in experiment [7], 74.1 µM in experiment [8], 59.9 µM in experiment [9] and 32.9 µM in experiment [10].

Consider `Cc1csc2n(C)c(=O)c3ccccc3[n+]12`, for which the TGI in experiment [1], in [2], in experiment [3], in experiment [4], in experiment [5] and in experiment [6] was above 100 µM throughout. Moreover, the TGI in [7], in [8], in experiment [9] and in experiment [10] was above 100 µM in each case.

Turning to `COc1cc(C2c3cc4c(cc3OC(N3CCOCC3)C2C)OCO4)cc(OC)c1OC(C)=O` (stereo not given), the TGI in experiment [1] is above 92.5 µM; in experiment [2], above 100 µM; in experiment [3], 49.2 µM; in experiment [4] it was above 56.8 µM; in experiment [5] it was above 100 µM; in experiment [6], above 100 µM. Also, the TGI was above 100 µM in [7], above 100 µM in experiment [8], 41.1 µM in experiment [9] and above 80.9 µM in experiment [10].

Take `O=[N+]([O-])c1ccc(-[n+]2ccc3ccccc3c2)c([N+](=O)[O-])c1`: the TGI was 27.8 µM in experiment [1]; 8.61 µM in experiment [2]; above 23.2 µM in experiment [3]; 8.69 µM in experiment [4]; 3.75 µM in [5]; above 21 µM in experiment [6]. The TGI in experiment [7] was 3.04 µM; in [8], 13.1 µM; in experiment [9], 25.2 µM; in [10], 17.7 µM.

On to `c1csc(-c2nnc(C34CC5CC(CC(C5)C3)C4)o2)c1`, for which the TGI in experiment [1] is above 100 µM; in experiment [2] it was above 100 µM; in [3], above 100 µM; in experiment [4], above 100 µM; in [5], above 100 µM; in experiment [6], 60 µM. The TGI in experiment [7] was above 100 µM; in experiment [8] it was above 100 µM; in experiment [9] it was 55.4 µM; in experiment [10] it was above 100 µM.

Turning to `O=C(O)C(CO)NC(=O)C1C(C(=O)O)C(c2ccccc2[N+](=O)[O-])C=C(c2ccco2)N1c1ccncc1` (stereo not given), the TGI was 23.6 µM in [1]; 4.15 µM in experiment [2]; 5.74 µM in [3]; 13.9 µM in experiment [4]; 5.63 µM in experiment [5]; above 22.5 µM in experiment [6]. Further, the concentration for total growth inhibition (TGI) came to 25.3 µM in experiment [7], 22.1 µM in [8], 31 µM in experiment [9] and 6.21 µM in experiment [10].

On to `c1ccc2nn(C3CCCCO3)nc2c1` (stereo not given), for which the TGI in experiment [1], in [2], in experiment [3], in experiment [4], in experiment [5] and in experiment [6] was above 100 µM each time. Moreover, the TGI in [7], in experiment [8], in experiment [9] and in experiment [10] was above 100 µM throughout.

With `OC1(c2ccc(Cl)cc2)c2ccccc2C2=NCc3ccccc3CN21` (stereo not given), the TGI in experiment [1] was 34.7 µM; in experiment [2] it was 9.63 µM; in experiment [3], above 58 µM; in [4], 8.08 µM; in experiment [5], 17.9 µM; in experiment [6], above 47.6 µM. Besides, the TGI in [7] came out at 25.6 µM; in [8], 15.2 µM; in experiment [9], 16.9 µM; in [10] it was 25.1 µM.
